Experimental data: US5736568A, “2-(aminoalkoxy) phenylalkylamines with antiinflammatory activity” (Knoll Aktiengesellschaft, priority 1994, dated 1998)
pIC50: −log10 of the molar value.

What was measured:
[1] = tested on: arachidonic acid release from zymosan stimulated macrophages; assay: Test A: Inhibition of Arachidonic Acid Release from Zymosan Stimulated Macrophages; format: cell-based, mice (female MF1); conditions: Mus musculus, Macrophage; peritoneal macrophages labelled with [3H]-arachidonic acid, zymosan stimulus, 5 h; tested at 100, 50, 20, 10, 5 and 1 μM
Experimental: Test A was carried out in the following way:
Inhibition of Arachidonic Acid Release from Zymosan Stimulated Macrophages
Female MF1 mice (weighing 20 to 25 g) were killed using a rising concentration of CO2. The mice were laid on their backs and the abdomens wiped with 70% alcohol. The skin was pulled back, exposing the peritoneal wall. Medium A (5 ml) (see below) was injected into the peritoneal cavity of each mouse followed by approximately 1 ml of air using a 20 ml syringe and a 21 G×40 mm needle in order to form a suspension of macrophage cells. The medium and cells were then removed using a 19 G×40 mm needle. The resulting suspension was returned to a sterile beaker kept on ice. The extracts from all the mice were pooled and this pooled cell suspension was counted using a Coulter counter and adjusted to a final cell count of 1-1.3×10^6 cells/ml prior to labelling with [^3 H]-arachidonic acid. Typically five mice provided sufficient cells for each multiwell plate.
Sufficient [^3 H]-arachidonic acid in ethanol to give a final concentration of 1.6 μCi/ml (equivalent to 40 μCi/plate) was blown to dryness under nitrogen. The arachidonic acid was then resuspended in 1 or 2 ml of the cell suspension which was then mixed with the remainder of the cell suspension in a centrifuge bottle.
The following day, non-adherent cells were removed by washing 3 times with sterile phosphate buffered saline (PBS). The adherent peritoneal macrophages were then cultured for a further 24 hours in the presence or absence of drugs, in medium B (see below) at 37° in a 5% CO2 atmosphere in order to measure the effects of drugs on the spontaneous release of arachidonic acid in the absence of stimulus. After this incubation, supernatants were removed to give medium 1 and stored in sealed multi-well plates at 4° C. prior to scintillation counting. […] The supernatants were replaced by fresh medium C containing fresh drug and a stimulus. Three drugs were tested at six concentrations (100, 50, 20, 10, 5 and 1 μM) in replicates of four on each plate. The other wells contained controls consisting of a positive control (e.g. dexamethasone), medium (B) only and medium C only.
Incubation was then continued for a further 5 hours, whereupon the supernatants were collected to give medium 2 and the adherent cells washed with PBS. The cells were then lysed with 100 μl of 0.1% TRITON® X100 in a 0.1% solution of bovine serum albumin in 0.9% saline and mechanically disrupted to give cell lysates. These supernatants (medium 2) and cell lysates (Cells) were also stored in sealed multi-well plates at 4° C. prior to scintillation counting. 200 μl aliquots of media, or 100 μl aliquots of cells were counted using 2 ml of OPTIPHASE "HIGH SAFE" (Trademark of LKB) as scintillant.
The percentage of arachidonic acid released was calculated using the mean values for each group of 4 wells in the following equation. [formula]
The percentage inhibition of arachidonic acid release caused by a drug may then be calculated using the following equation. [formula]
Medium A (for peritoneal lavage)
This mixture was transferred to sterile flask and made up to 400 ml with sterile water.
Medium B (for cell culture)
This mixture was transferred to a sterile beaker and made up to 650 ml with sterile water.
Medium C=medium B+stimulant (zymosan)
The zymosan stimulant was prepared as follows:--zymosan (200 mg) (supplied by Sigma) was added to PBS (20 ml). The mixture was boiled for 30 minutes and the volume restored to 20 ml with water. The zymosan was harvested by centrifugation at 500×g for 5 minutes, washed twice by resuspension in PBS (10 ml) and centrifugation. After the final separation, the zymosan was resuspended in 20 ml PBS and stored as 1 ml aliquots at -20° C.

[2] = tested on: carrageenan-induced paw oedema; assay: Test B: Carrageenan-induced rat paw oedema test; format: in vivo; conditions: inhibition of paw oedema, 100 mg/kg oral, 3 h after carrageenan
Experimental: Test B was carried out in the following way:
Carrageenan-induced rat paw oedema test
Female rats, weight range 125-150 g were fasted overnight. One of the hind legs of each animal was marked with a line at the connection between the cuboid/navicular and calcaneus/talus bones. Groups of six rats were orally dosed at 10 ml/kg, in random order, with a given dose of the test compound given as a solution or suspension in 10% (w/v) aqueous acacia solution.
One hour after dosing, 0.1 ml of 1% (w/v) sterile carrageenan λ in normal saline was injected deeply into the plantar surface of the marked hind foot of each rat. The volume of the foot (up to the marked line) was measured immediately after injection using duplicate water displacement readings. Three hours after injection the foot volume was measured again and the percentage increase in foot volume relative to the initial reading was calculated.
The increase in foot volume (i.e. the degree of oedema) in drug treated animals when compared with that in the drug untreated control gave the degree of inhibition of paw oedema by the drug.
Compounds were considered to be active in this test if they produced a statistically significant (typically 20% or greater) inhibition of paw oedema in at least two out of three tests after oral dosing at 100 mg/kg. Statistical significance was assessed using the Student's t test for single dose studies and Dunnett's test for multiple dose studies. More advantageous compounds were active in both Tests A and B,

[3] = tested on: carrageenan-induced pleurisy; assay: Test C: Carrageenan-induced pleurisy in rats; format: in vivo, rat; conditions: 24 h and 48 h, leukocytes harvested at 72 h; for activity in Test C at 30 mg/kg: 30 mg/kg p.o. at challenge; for activity in Test C at 10 mg/kg or less: 10 mg/kg or less p.o. at challenge
Experimental: The most advantageous compounds of formula I were active in Test A and also in the following test. Carrageenan-induced pleurisy in rats was carried out as described by Ackerman et al. J. Pharmacol. Exp. Therap. 1980, 215, 588-595. Migrating leukocytes were harvested by lavage of the thoracic cavity 72 h after injection of 0.3 ml 1% λ-carrageenan in sterile isotonic saline. Test compounds were administered p.o. at the time of challenge and 24 h and 48 h thereafter.

CN(CCOc1ccc(Cl)cc1CN1CCCCC1)Cc1ccccc1 [Example 11, N-Benzyl-2-[4-chloro-2-(piperidinomethyl)phenoxy]-N-methylethylamine]
pIC50 [1]: 5.00
inhibition at 100 mg/kg [2]: 47%
activity in Test C at 30 mg/kg [3]: active

CN(C)Cc1cc(Cl)ccc1OCCCN(C)Cc1ccccc1 [Example 12, 2-[3-(N-Benzyl-N-methylamino)propoxy]-5-chloro-N,N-dimethylbenzylamine]
pIC50 [1]: 5.10
inhibition at 100 mg/kg [2]: 68%
activity in Test C at 30 mg/kg [3]: active

CN(C)Cc1c(OCCN(C)Cc2ccccc2)ccc(Cl)c1Cl [Example 13, 2-[2-(N-Benzyl-N-methylamino)ethoxy]-5,6-dichloro-N,N-dimethylbenzylamine]
pIC50 [1]: 5.10
inhibition at 100 mg/kg [2]: 70%
activity in Test C at 30 mg/kg [3]: active

CN(C)Cc1ccccc1OCCN(C)Cc1ccc(Cl)cc1 [Example 17, 2-{2-[N-(4-Chlorobenzyl)-N-methylamino]ethoxy}-N,N-dimethylbenzylamine]
pIC50 [1]: 4.89
inhibition at 100 mg/kg [2]: 36%
activity in Test C at 10 mg/kg or less [3]: active

CN(C)Cc1ccccc1OCCN(C)Cc1ccccc1 [Example 20, 2-[2-(N-Benzyl-N-methylamino)ethoxy]-N,N-dimethylbenzylamine]
pIC50 [1]: 4.44
inhibition at 100 mg/kg [2]: 64%
activity in Test C at 30 mg/kg [3]: active

CN(C)Cc1cc(Cl)ccc1OCCN(C)Cc1ccccc1 [Example 21, 2-[2-(N-Benzyl-N-methylamino)ethoxy]-5-chloro-N,N-dimethylbenzylamine]
pIC50 [1]: 4.66
inhibition at 100 mg/kg [2]: 31%
activity in Test C at 10 mg/kg or less [3]: active

CN(C)CCOc1ccc(Cl)cc1CN(C)C [Example 22, 5-Chloro-2-(2-dimethylaminoethoxy)-N,N-dimethylbenzylamine]
pIC50 [1]: 4.85
inhibition at 100 mg/kg [2]: 26%
activity in Test C at 30 mg/kg [3]: active
